Experimental data reported in patent publication US5470830A, “Motilin-like polypeptides that inhibit gastrointestinal motor activity” (Ohmeda Pharmaceutical Products Division Inc., priority 1993, dated 1995).
Counter-ions that a name gives are not always drawn. Like-named read-outs stand apart in the source and are kept apart here. Where a SMILES comes first, the peptide text is derived from it. Where no end group is shown, it is not given here. [ ]: non-standard residue; d: D form. Phe(4-I) = N[C@@H](Cc1ccc(I)cc1)C(=O)O; 2Nal = N[C@@H](Cc1ccc2ccccc2c1)C(=O)O; NMeF = CN[C@@H](Cc1ccccc1)C(=O)O; 3Pal = N[C@@H](Cc1cccnc1)C(=O)O; Cha = N[C@@H](CC1CCCCC1)C(=O)O

Columns and labels:
[1] = biological target: segments of rabbit duodenum (Oryctolagus cuniculus, UniProt G1T803); test: Rabbit duodenal smooth muscle strip tissue bath assay (contractile response); assay type: cell-based; details: contractility; negative logarithm of dose giving 50% of maximal response to motilin; compounds tested 10^-11 to 10^-4 M
segments of rabbit duodenum, sequence (G1T803 1-400): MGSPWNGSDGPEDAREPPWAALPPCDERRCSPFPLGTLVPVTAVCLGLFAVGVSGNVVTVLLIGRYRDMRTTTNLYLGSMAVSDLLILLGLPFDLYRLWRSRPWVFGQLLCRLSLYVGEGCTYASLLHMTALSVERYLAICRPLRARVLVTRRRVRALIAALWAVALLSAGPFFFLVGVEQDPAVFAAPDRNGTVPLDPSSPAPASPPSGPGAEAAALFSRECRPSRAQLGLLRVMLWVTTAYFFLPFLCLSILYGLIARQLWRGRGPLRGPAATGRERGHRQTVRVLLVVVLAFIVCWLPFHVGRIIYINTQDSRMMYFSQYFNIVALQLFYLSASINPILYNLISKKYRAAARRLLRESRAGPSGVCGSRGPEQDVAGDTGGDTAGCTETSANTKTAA
Description: The experimental protocol consisted of an equilibration period of 1 hour: a challenge with 10^-4 M acetylcholine followed by a wash-out period; a cumulative dose-response curve of a compound with, at the end, the addition of 10^-7 M motilin; and finally 10^-4 M acetylcholine. If the final response to 10^-4 M acetylcholine differed by more than 5% from the initial response, the results were discarded.

[2] = biological target: T1, motilin receptor (rabbit antral smooth muscle membranes) (Oryctolagus cuniculus, UniProt G1T803); test: Motilin receptor binding affinity: displacement of [125I-Tyr7,Nle13]motilin(porcine)
T1 construct: from tissue; host or cells: rabbit antral smooth muscle membranes
T1 sequence (G1T803 1-400): as above
Description: The motilin receptor binding affinity of the peptides of this invention was determined by using the general procedure of Bormans, Peelers and Vantrappen, Regul. Pept., 15, 143-153 (1986). The ability of the peptides to displace [^125 I-Tyr^7,Nle^13 ]motilin(porcine) bound to rabbit antral smooth muscle membranes, was determined by testing twice, each time in duplicate, at concentrations ranging from 10^-11 to 10^-4 M. The concentration displacing 50% of the label (IC50) was determined by fitting the data to the equation describing displacement, assuming a single class of motilin receptors to which labeled and non-labeled motilin bind with equal affinity and non-cooperatively. Fitting was performed using the iterative least-squares procedure of the SAS-software package (SAS Institute, Inc., Cary, N.C., U.S.A.). […] The concentration displacing 50% of the label is expressed using its negative logarithm (pIC50).

[3] = negative logarithm of concentration displacing 50% of [125I-Tyr7,Nle13]motilin(porcine) from rabbit antral smooth muscle membranes, read-out: pIC50 (converted)

Row | pEC50 [1] | IC50 [2, 3] [µM] | Compound | IC50 [2] [µM]
1 | < 4.5 | 0.0437 | CC[C@H](C)[C@H](NC(=O)[C@H](Cc1ccc(I)cc1)NC(=O)[C@@H](NC(=O)[C@@H](N)Cc1ccccc1)C(C)C)C(=O)N[C@@H](Cc1ccccc1)C(=O)N[C@H](C(=O)N[C@@H](Cc1ccc(O)cc1)C(=O)NCC(=O)N[C@@H](CCC(=O)O)C(=O)N[C@@H](CC(C)C)C(=O)N[C@@H](CCC(N)=O)C(=O)N[C@@H](CCCNC(=N)N)C(=O)N[C@@H](CC(C)C)C(=O)N[C@@H](CCC(N)=O)C(=O)O)[C@@H](C)O [[p-I-Phe^3, Leu^13]pMOT(1-14), H-Phe-Val-p-L-Phe-Ile-Phe-Thr-Tyr-Gly-Glu-Leu-Gln-Arg-Leu-Gln-OH] (H-FV[Phe(4-I)]IFTYGELQRLQ-OH) | –
2 | < 4.5 | 0.0107 | CC[C@H](C)[C@H](NC(=O)[C@H](Cc1ccccc1)NC(=O)[C@@H](NC(=O)[C@H](Cc1ccccc1)NC)C(C)C)C(=O)N[C@@H](Cc1ccccc1)C(=O)N[C@H](C(=O)N[C@@H](Cc1ccc(O)cc1)C(=O)NCC(=O)N[C@@H](CCC(=O)O)C(=O)N[C@@H](CC(C)C)C(=O)N[C@@H](CCC(N)=O)C(=O)N[C@@H](CCCNC(=N)N)C(=O)N[C@@H](CC(C)C)C(=O)N[C@@H](CCC(N)=O)C(=O)O)[C@@H](C)O [[N--MePhe^1, Phe^3, Leu^3]pMOT(1-14), [1-N-Methylphenylalanine, 3-phenylalanine, 13-leucine] motilin-(1-14)-peptide (Porcine), Bis-trifluoroacetate Salt] (H-[NMeF]VFIFTYGELQRLQ-OH) | –
3 | < 4.5 | 0.178 | H-FVLIFTYGELQRLQ-OH [[Leu^3, Leu^13]pMOT(1-14), H-Phe-Val-Leu-Ile-Phe-Thr-Tyr-Gly-Glu-Leu-Gln-Arg-Leu-Gln-OH] | –
4 | < 4.5 | 0.0309 | H-FVFIFTFGELQRLQ-OH [[Phe^3, Phe^7, Leu^13]pMOT(1-14), H-Phe-Val-Phe-Ile-Phe-Thr-Phe-Gly-Glu-Leu-Gln-Arg-Leu-Gln-OH] | –
5 | < 4.5 | 0.049 | CC[C@H](C)[C@H](NC(=O)[C@H](Cc1ccccc1)NC(=O)[C@@H](NC(=O)[C@@H](N)Cc1ccccc1)C(C)C)C(=O)N[C@@H](Cc1ccccc1)C(=O)N[C@H](C(=O)N[C@@H](Cc1ccc(O)cc1)C(=O)N[C@H](C)C(=O)N[C@@H](CCC(=O)O)C(=O)N[C@@H](CC(C)C)C(=O)N[C@@H](CCC(N)=O)C(=O)N[C@@H](CCCNC(=N)N)C(=O)N[C@@H](CC(C)C)C(=O)N[C@@H](CCC(N)=O)C(=O)O)[C@@H](C)O [[Phe^3, D-Ala^8, Leu^13]pMOT(1-14), H-Phe-Val-Phe-Ile-Phe-Thr-Tyr-D-Ala-Glu-Leu-Gln-Arg-Leu-Gln-OH] (H-FVFIFTY[dA]ELQRLQ-OH) | –
6 | < 4.5 | 0.229 | CC[C@H](C)[C@H](NC(=O)[C@H](Cc1ccccc1)NC(=O)[C@@H](NC(=O)[C@H](N)Cc1ccccc1)C(C)C)C(=O)N[C@@H](Cc1ccccc1)C(=O)N[C@H](C(=O)N[C@@H](Cc1ccc(O)cc1)C(=O)NCC(=O)N[C@@H](CCC(=O)O)C(=O)N[C@@H](CC(C)C)C(=O)N[C@@H](CCC(N)=O)C(=O)N[C@@H](CCCNC(=N)N)C(=O)N[C@@H](CC(C)C)C(=O)N[C@@H](CCC(N)=O)C(=O)O)[C@@H](C)O [[D-Phe^1, Phe^3, Leu^13]pMOT(1-14), H-D-Phe-Val-Phe-Ile-Phe-Thr-Tyr-Gly-Glu-Leu-Gln-Arg-Leu-Gln-OH] (H-[dF]VFIFTYGELQRLQ-OH) | –
7 | < 4.5 | 0.00813 | CC[C@H](C)[C@H](NC(=O)[C@@H](Cc1ccccc1)NC(=O)[C@@H](NC(=O)[C@@H](N)Cc1ccccc1)C(C)C)C(=O)N[C@@H](Cc1ccccc1)C(=O)N[C@H](C(=O)N[C@@H](Cc1ccc(O)cc1)C(=O)NCC(=O)N[C@@H](CCC(=O)O)C(=O)N[C@@H](CC(C)C)C(=O)N[C@@H](CCC(N)=O)C(=O)N[C@@H](CCCNC(=N)N)C(=O)N[C@@H](CC(C)C)C(=O)N[C@@H](CCC(N)=O)C(=O)O)[C@@H](C)O [[D-Phe^3, Leu^13]pMOT(1-14), H-Phe-Val-D-Phe-Ile-Phe-Thr-Tyr-Gly-Glu-Leu-Gln-Arg-Leu-Gln-OH] (H-FV[dF]IFTYGELQRLQ-OH) | –
8 | < 4.5 | 0.0275 | FVFIFTYGELQR-NH2 [[Phe^3 pMOT(1-12) amide, [3-Phenylalanine]motilin-(1-12)-peptide Amide (Porcine), Bis-trifluoroacetate Salt] | –
9 | < 4.5 | 0.0158 | H-FVFIATYGELQRLQ-OH [[Phe^3, Ala^5, Leu^13]pMOT(1-14), H-Phe-Val-Phe-Ile-Ala-Thr-Tyr-Gly-Glu-Leu-Gln-Arg-Leu-Gln-OH] | –
10 | < 4.5 | 0.0813 | CC[C@H](C)[C@H](NC(=O)[C@H](Cc1ccccc1)NC(=O)[C@@H](NC(=O)[C@@H](N)Cc1ccccc1)C(C)C)C(=O)N[C@@H](Cc1ccccc1)C(=O)N[C@H](C(=O)N[C@@H](Cc1ccc(O)cc1)C(=O)NCC(=O)N[C@@H](CCC(=O)O)C(=O)N[C@@H](CC(C)C)C(=O)N[C@@H](CCC(N)=O)C(=O)N[C@H](CCCNC(=N)N)C(=O)N[C@@H](CC(C)C)C(=O)N[C@@H](CCC(N)=O)C(=O)O)[C@@H](C)O [[Phe^3, D-Arg^12, Leu^13]pMOT(1-14)] (H-FVFIFTYGELQ[dR]LQ-OH) | –
11 | < 4.5 | 0.00158 | H-FVFIFTYGELQRLK-NH2 [[Phe^3, Leu^13, Lys^14]pMOT(1-14) amide, H-Phe-Val-Phe-Ile-Phe-Thr-Tyr-Gly-Glu-Leu-Gln-Arg-Leu-Lys-NH2] | –
12 | < 4.5 | 0.0295 | CC[C@H](C)[C@H](NC(=O)[C@H](Cc1ccccc1)NC(=O)[C@@H](NC(=O)[C@@H](N)CC1CCCCC1)C(C)C)C(=O)N[C@@H](Cc1ccccc1)C(=O)N[C@H](C(=O)N[C@@H](Cc1ccc(O)cc1)C(=O)NCC(=O)N[C@@H](CCC(=O)O)C(=O)N[C@@H](CC(C)C)C(=O)N[C@@H](CCC(N)=O)C(=O)N[C@@H](CCCNC(=N)N)C(=O)N[C@@H](CC(C)C)C(=O)N[C@@H](CCC(N)=O)C(=O)O)[C@@H](C)O [[Cha^1, Phe^3, Leu^13]pMOT(1-14), H-Cha-Val-Phe-Ile-Phe-Thr-Tyr-Gly-Glu-Leu-Gln-Arg-Leu-Gln-OH] (H-[Cha]VFIFTYGELQRLQ-OH) | –
13 | < 4.5 | 0.0158 | H-FVFIFTYGELARLQ-OH [[Phe^3, Ala^11, Leu^13]pMOT(1-14), H-Phe-Val-Phe-Ile-Phe-Thr-Tyr-Gly-Glu-Leu-Ala-Arg-Leu-Gln-OH] | –
14 | < 4.5 | 0.158 | CC[C@H](C)[C@H](NC(=O)[C@H](Cc1cccnc1)NC(=O)[C@@H](NC(=O)[C@@H](N)Cc1ccccc1)C(C)C)C(=O)N[C@@H](Cc1ccccc1)C(=O)N[C@H](C(=O)N[C@@H](Cc1ccc(O)cc1)C(=O)NCC(=O)N[C@@H](CCC(=O)O)C(=O)N[C@@H](CC(C)C)C(=O)N[C@@H](CCC(N)=O)C(=O)N[C@@H](CCCNC(=N)N)C(=O)N[C@@H](CC(C)C)C(=O)N[C@@H](CCC(N)=O)C(=O)O)[C@@H](C)O [[Pal^3, Leu^13]pMOT(1-14), H-Phe-Val-Pal-Ile-Phe-Thr-Tyr-Gly-Glu-Leu-Gln-Arg-Leu-Gln-OH] (H-FV[3Pal]IFTYGELQRLQ-OH) | –
15 | < 4.5 | 0.0209 | CC[C@H](C)[C@H](NC(=O)[C@H](CC1CCCCC1)NC(=O)[C@@H](NC(=O)[C@@H](N)Cc1ccccc1)C(C)C)C(=O)N[C@@H](Cc1ccccc1)C(=O)N[C@H](C(=O)N[C@@H](Cc1ccc(O)cc1)C(=O)NCC(=O)N[C@@H](CCC(=O)O)C(=O)N[C@@H](CC(C)C)C(=O)N[C@@H](CCC(N)=O)C(=O)N[C@@H](CCCNC(=N)N)C(=O)N[C@@H](CC(C)C)C(=O)N[C@@H](CCC(N)=O)C(=O)O)[C@@H](C)O [[Cha^3, Leu^13]pMOT(1-14), H-Phe-Val-Cha-Ile-Phe-Thr-Tyr-Gly-Glu-Leu-Gln-Arg-Leu-Gln-OH] (H-FV[Cha]IFTYGELQRLQ-OH) | –
16 | < 4.5 | 0.00398 | H-FVFLFTYGELQRLQ-OH [[Phe^3, Leu^4, Leu^13]pMOT(1-14), H-Phe-Val-Phe-Leu-Phe-Thr-Tyr-Gly-Glu-Leu-Gln-Arg-Leu-Gln-OH] | –
17 | < 4.5 | 0.0275 | CC[C@H](C)[C@H](NC(=O)[C@H](Cc1ccc2ccccc2c1)NC(=O)[C@@H](NC(=O)[C@@H](N)Cc1ccccc1)C(C)C)C(=O)N[C@@H](Cc1ccccc1)C(=O)N[C@H](C(=O)N[C@@H](Cc1ccc(O)cc1)C(=O)NCC(=O)N[C@@H](CCC(=O)O)C(=O)N[C@@H](CC(C)C)C(=O)N[C@@H](CCC(N)=O)C(=O)N[C@@H](CCCNC(=N)N)C(=O)N[C@@H](CC(C)C)C(=O)N[C@@H](CCC(N)=O)C(=O)O)[C@@H](C)O [[2-Nal^3, Leu^13]pMOT(1-14), H-Phe-Val-2-Nal-Ile-Phe-Thr-Tyr-Gly-Glu-Leu-Gln-Arg-Leu-Gln-OH] (H-FV[2Nal]IFTYGELQRLQ-OH) | –
18 | < 4.5 | 0.0339 | H-FLFIFTYGELQRLQ-OH [[Leu^2, Phe^3, Leu^13]pMOT(1-14), H-Phe-Leu-Phe-Ile-Phe-Thr-Tyr-Gly-Glu-Leu-Gln-Arg-Leu-Gln-OH] | –

Row | Compound | pEC50 [1] | IC50 [2, 3] [µM] | IC50 [2] [µM]
19 | FVIIFTYGELQRLQEKERNKGQ [[Ile^3, Leu^13]pMOT] | < 4.5 | – | 0.0151
20 | FVFIFTYGELQRLQEKERNKGQ [[Phe^3,Leu^13]pMOT, [3-Phenylalanine, 13-leucine]motilin (Porcine), Pentakis-trifluoroacetate Salt] | < 4.5 | – | 0.000776
